# Data from PubChem BioAssay (NCI).
# Values joined by “and” are separate entries in the source; they are usually repeats but may differ in a detail not shown here. Equal values may be shown once.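 Test compounds were applied to cells in 96-well plates for 48 hours at 5 doses. GI50: concentration for 50% inhibition of growth. The concentration for full growth arrest is given as TGI.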
# What was measured:
# Assay in all cases: NCI-60 cell line screen, 48 h
# OVCAR-3 ovarian = test system: OVCAR-3 ovarian
# SF-539 CNS = test system: SF-539 CNS
# HOP-62 NSCLC = test system: HOP-62 NSCLC
# IGROV1 ovarian = test system: IGROV1 ovarian
# MDA-MB-435 = test system: MDA-MB-435
# SF-268 CNS = test system: SF-268 CNS
# NCI-H226 lung = test system: NCI-H226 lung
# K-562 leukemia = test system: K-562 leukemia
# SK-OV-3 ovarian = test system: SK-OV-3 ovarian
# HCT-15 colon = test system: HCT-15 colon
SMILES,GI50 (OVCAR-3 ovarian),TGI (OVCAR-3 ovarian),GI50 (SF-539 CNS) [µM],TGI (SF-539 CNS),GI50 (HOP-62 NSCLC),TGI (HOP-62 NSCLC),GI50 (IGROV1 ovarian) [µM],TGI (IGROV1 ovarian),GI50 (MDA-MB-435) [µM],TGI (MDA-MB-435) [µM],GI50 (SF-268 CNS) [µM],TGI (SF-268 CNS) [µM],GI50 (NCI-H226 lung),TGI (NCI-H226 lung),GI50 (K-562 leukemia),TGI (K-562 leukemia),GI50 (SK-OV-3 ovarian) [µM],TGI (SK-OV-3 ovarian),GI50 (HCT-15 colon) [µM],TGI (HCT-15 colon)
Cc1ccc2c(-c3ccnc(Nc4cccc(C(F)(F)F)c4)n3)c(-c3ccccc3)nn2n1,5.73 µM,> 18.8 µM,6.56,> 19.6 µM,14.4 µM,> 25 µM,2.1,24.4 µM,6.77,> 25,> 15.2,> 25,6.01 µM,17 µM,> 25 µM,> 25 µM,0.597,> 15.8 µM,5.34,> 19 µM
CC[C@@]1(O)C(=O)OCc2c1cc1n(c2=O)Cc2cc3cc(O)ccc3nc2-1,0.069 µM and 0.0368 µM,0.301 µM and 0.228 µM,,0.0495 µM and 0.0166 µM,< 0.0075 µM,0.0319 µM and 0.153 µM,0.238,22.8 µM and 2.67 µM,,1.09,0.0192,,0.0162 µM and 0.0165 µM,0.0907 µM and 0.113 µM,0.0419 µM and 0.0427 µM,24.7 µM and > 46.5 µM,< 0.0124,0.7 µM and 1.85 µM,0.355,20.8 µM and 42.5 µM
COC(=O)NC1=Nc2ccccc2C(=O)NN1,,> 100 µM,,> 100 µM,,> 100 µM,,> 100 µM,,> 100,,> 100,,> 100 µM,,> 100 µM,,> 100 µM,,> 100 µM
C=CCc1cc(O)ccc1O,7.64 µM,20.7 µM,14.2,70.2 µM,29.8 µM,> 100 µM,43.4,> 100 µM,19.9,57.1,16.5,> 100,44.2 µM,> 100 µM,17.7 µM,> 100 µM,94.8,> 100 µM,36,> 100 µM
C=C(CC)C(=O)c1ccc(OCC(=O)O)c(Cl)c1Cl,,30.1 µM,,24.4 µM,,> 56 µM,,47.5 µM,,32.3,,33.1,,45.8 µM,,> 100 µM,,> 100 µM,,58.8 µM
Nc1nc(N)c2c(Cl)c(CNc3ccc(Cl)c(Cl)c3)ccc2n1,,11 µM,,1.21 µM,,6.59 µM,,13.4 µM,,17.5,,15.7,,33.7 µM,,2.97 µM,,16.1 µM,,13.6 µM
c1ccc(-c2sc(-c3ccccc3)c3c2C(c2ccccc2)c2c(-c4ccccc4)sc(-c4ccccc4)c2C3c2ccccc2)cc1 (configuration not stated),,> 100 µM,,> 100 µM,,> 100 µM,,> 100 µM,,,,> 100,,> 100 µM,,> 100 µM,,> 100 µM,,> 100 µM
Nc1nc2c(ncn2C2OC(CO)C(O)C2O)c(=O)o1 (configuration not stated),,> 100 µM,,> 100 µM,,> 100 µM,,> 100 µM,,,,> 100,,> 100 µM,,> 100 µM,,> 100 µM,,> 100 µM
CCN(CC)CCN1C(=O)c2c(c3c4cccc(Cl)c4n(C4OC(CO)C(OC)C(O)C4O)c3c3[nH]c4c(Cl)cccc4c23)C1=O (configuration not stated),,,,,0.000125 µM and < 0.0318 µM and < 0.01 µM,,,,,0.217,< 0.0001,,,,,,,,,
Cc1cc(C)c([O-])c(-[n+]2c(-c3ccccc3)cc(-c3ccccc3)cc2-c2ccccc2)c1,,12 µM,,26.9 µM,,22.8 µM,,19.9 µM,,,,21.5,,24.9 µM,,> 100 µM,,27.2 µM,,25.4 µM
CCP(C)(=O)CC,,> 100 µM,,> 100 µM,,> 100 µM,,> 100 µM,,,,> 100,,> 100 µM,,> 100 µM,,> 100 µM,,> 100 µM
CCN1C[C@@H](C)n2c(c(O)c3c(=O)n(Cc4ccc(F)c(Cl)c4)nc(C(=O)NC)c32)C1=O,,,2.32,5.37 µM,3.16 µM,24.7 µM,3.74,> 100 µM,3.21,> 100,3.4,39.8,3.31 µM,> 100 µM,3.39 µM,> 100 µM,3.3,9.64 µM,2.57,8.28 µM
COc1cc(C(=O)/C=C/c2cccnc2Nc2ccc(Cl)cc2)cc(OC)c1OC,1.31 µM,2.62 µM,1.71,3.11 µM,1.65 µM,3.13 µM,2.24,4.78 µM,1.49,3.36,1.72,3.19,1.16 µM,2.45 µM,,,1.72,3.29 µM,1.49,3.48 µM
[CH3][Ge]([CH3])([CH2]CC#N)[S]c1ccccc1,12.3 µM,29.1 µM,12.9,27.8 µM,14.6 µM,38.1 µM,0.371,1.28 µM,,,18.6,51.6,13.1 µM,33.4 µM,8 µM,> 100 µM,21.7,55.9 µM,15,28.2 µM
CCN(CC)Cc1cc(Nc2ccnc3ccc(OC)cc23)ccc1O,3.2 µM,20.4 µM,2.17,4.84 µM,3.8 µM,18.4 µM,,,3.08,12.3,3.61,19.8,4.15 µM,21.7 µM,,,7.15,34.5 µM,3.56,34 µM
N#Cc1c(-c2ccccc2)nc(SCC(O)CN2CCOCC2)nc1N1CCOCC1 (configuration not stated),15.4 µM,> 100 µM,,,29 µM,> 100 µM,,,19.6,> 100,17.8,> 100,7.12 µM,> 100 µM,20 µM,> 100 µM,1.87,12 µM,9.16,> 100 µM
